The assay has as its target D(3) dopamine receptor (Homo sapiens, UniProt P35462). The assay can be described thus: Agonist activity at human D3 receptor expressed in CHO cells assessed as stimulation of […] mitogenesis.

pEC50: −log10 of the molar value.

Chain of D(3) dopamine receptor (P35462 as listed by the source): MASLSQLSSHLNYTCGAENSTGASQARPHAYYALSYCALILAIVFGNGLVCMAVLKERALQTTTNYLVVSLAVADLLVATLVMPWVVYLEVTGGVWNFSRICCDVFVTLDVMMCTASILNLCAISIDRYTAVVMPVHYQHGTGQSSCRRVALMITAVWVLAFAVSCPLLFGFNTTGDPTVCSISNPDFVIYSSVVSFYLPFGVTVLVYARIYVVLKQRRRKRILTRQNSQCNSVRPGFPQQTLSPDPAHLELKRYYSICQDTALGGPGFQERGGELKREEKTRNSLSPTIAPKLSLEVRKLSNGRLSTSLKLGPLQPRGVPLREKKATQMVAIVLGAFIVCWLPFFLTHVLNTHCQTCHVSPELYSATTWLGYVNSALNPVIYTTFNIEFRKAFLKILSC

Regarding `CCc1cc(Cl)c(OC)c(N2CCN(C[C@H](O)CCNC(=O)c3cc4ccccc4[nH]3)CC2)c1`, the pEC50 (commonly the negative decadic logarithm of the EC50, by convention in mol/L) is < 5.49.
The same measure for `CCc1cc(Cl)c(OC)c(N2CCN(C[C@@H](O)CCNC(=O)c3cc4ccccc4[nH]3)CC2)c1`: < 5.17.

Source of the values: BindingDB's records for doi:10.1021/acs.jmedchem.9b00607 (National Institute On Drug Abuse-Intramural Research Program, 2019).
